# Measurements taken from US20120157499A1, “DELIVERY OF AN ACTIVE DRUG TO THE POSTERIOR PART OF THE EYE VIA SUBCONJUNCTIVAL OR PERIOCULAR DELIVERY OF A PRODRUG” (Allergan, Inc., priority 2003, published 2012).
# Legend:
# [1] = Subconjunctival injection into a patient suffering from retinitis pigmentosa; format: in vivo; details: 1 mg in poly(lactide-co-glycolide) microsphere suspension, injected subconjunctivally
# Procedure: A dose of tazarotene (1 mg) contained in the poly(lactide-co-glycolide) microsphere suspension of Example containing 1 is injected subconjunctivally into a patient suffering from retinitis pigmentosa.
# A dose of all-trans retinyl palmitate (1 mg) contained in the poly(lactide-co-glycolide) microsphere suspension of Example containing 1 is injected subconjunctivally into a patient suffering from retinitis pigmentosa.
# [2] = Subconjunctival injection into a patient suffering from proliferative vitreal retinopathy; format: in vivo; details: 1 mg in poly(lactide-co-glycolide) microsphere suspension, injected subconjunctivally
# Procedure: A dose of tazarotene (1 mg) contained in the poly(lactide-co-glycolide) microsphere suspension of Example containing 1 is injected subconjunctivally into a patient suffering from proliferative vitreal retinopathy.
# [3] = Ocular disposition of tazarotene and tazarotenic acid after intraocular and subconjunctival administration of tazarotene; format: in vivo; details: albino rabbits
# Procedure: General disposition of tazarotene and tazarotenic acid resulting from intraocular and subconjunctival administration of tazarotene was assessed. Albino rabbits were dosed via intraocular injection with 1.25 μg of tazarotene. Injection was made mid-vitreous. After dosing the vitreous, retina and aqueous humor concentrations of tazarotene and tazarotenic acid were determined at 0.5, 1, 2, 4, 8, 12 and 24 hours post dosing.
# Tazarotene was also dosed in the subconjunctival space. Three dosage forms were evaluated: the tazarotene aqueous suspension described in Example 2 (50 μl of the solution, 1 mg tazarotene), tazarotene olive oil solution described in Example 3 (50 μl mg of the solution, 1 mg of tazarotene), and the tazarotene poly(lactide-co-glycolide) microsphere suspension described in Example 1. After dosing, the vitreous, retina and aqueous humor concentrations of tazarotene and tazarotenic acid were determined at 2, 8, 24, 48, 96, 168 and 336 hours post dosing (see FIGS. 1-8). […] In Table 1 the mean vitreous concentration refers to average vitreous concentration observed from zero to one hundred sixty-eight hours post dosing. The mean vitreous concentration at each time point was used to calculate the overall vitreous mean concentration over the 168 hours for a given route of administration and dosage form. […]
# RARγ = molecular target: T1, RARγ (Homo sapiens, UniProt P13631); assay: RARγ receptor binding assay, competition with [3H] retinoic acid; details: Baculovirus-expressed receptor; Kd from IC50 by Cheng-Prussof; mean and standard deviation; read-out: receptor affinity (KD), RARγ
# T1 construct: made in house
# T1 sequence (P13631 1-454): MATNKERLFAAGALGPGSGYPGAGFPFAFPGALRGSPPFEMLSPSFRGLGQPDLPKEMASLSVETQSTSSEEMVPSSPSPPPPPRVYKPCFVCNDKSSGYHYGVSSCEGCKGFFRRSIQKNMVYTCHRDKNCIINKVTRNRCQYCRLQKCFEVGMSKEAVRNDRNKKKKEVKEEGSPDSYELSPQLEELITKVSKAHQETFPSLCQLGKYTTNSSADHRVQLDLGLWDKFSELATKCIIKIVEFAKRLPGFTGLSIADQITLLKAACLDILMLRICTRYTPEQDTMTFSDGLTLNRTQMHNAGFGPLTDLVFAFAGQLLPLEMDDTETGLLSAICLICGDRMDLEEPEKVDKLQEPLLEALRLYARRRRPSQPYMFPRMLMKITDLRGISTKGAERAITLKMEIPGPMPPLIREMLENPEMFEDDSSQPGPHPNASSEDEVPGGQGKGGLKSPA
# Procedure: (§1) The binding of tazarotene and tazarotenic acid to the retinoic acid receptor (RAR) family receptors (RARα, RARβ, RARγ) was determined as follows.
# (§2) All binding assays were performed in a similar fashion. All three receptor subtypes were derived from the expressed receptor type (RARα, RARβ, and RARγ) expressed in Baculovirus. Stock solutions of the compounds were prepared as 10 mM ethanol solutions and serial dilutions carried out into 1:1 DMSO; ethanol. Assay buffers consisted of the following for all six receptor assays: 8% glycerol, 120 mM KCl, 8 mM Tris, 5 mM CHAPS 4 mM DTT and 0.24 mM PMSF, pH-7.4 @ room temperature.
# (§3) All receptor binding assays were performed in the same manner. […] The amount of receptor-ligand complex was determined by liquid scintillation counting of hydroxyapitite pellet.
# (§4) After correcting for non-specific binding, IC50 values were determined. […] The IC50 value was determined graphically from a loglogit plot of the data. The […] were determined by application of the Cheng-Prussof equation to the IC50 values, the labeled ligand concentration and the Kd of the labeled ligand.
# (§5) The results of ligand binding assay are expressed in Kd numbers. […] Binding data for tazarotenic acid is expressed as the mean and standard deviation. […]
# RARβ = molecular target: T2, RARβ (Homo sapiens, UniProt P10826); assay: RARβ receptor binding assay, competition with [3H] retinoic acid; details: Baculovirus-expressed receptor; Kd from IC50 by Cheng-Prussof; mean and standard deviation; read-out: receptor affinity (KD), RARβ
# T2 construct: made in house
# T2 sequence (P10826 1-455): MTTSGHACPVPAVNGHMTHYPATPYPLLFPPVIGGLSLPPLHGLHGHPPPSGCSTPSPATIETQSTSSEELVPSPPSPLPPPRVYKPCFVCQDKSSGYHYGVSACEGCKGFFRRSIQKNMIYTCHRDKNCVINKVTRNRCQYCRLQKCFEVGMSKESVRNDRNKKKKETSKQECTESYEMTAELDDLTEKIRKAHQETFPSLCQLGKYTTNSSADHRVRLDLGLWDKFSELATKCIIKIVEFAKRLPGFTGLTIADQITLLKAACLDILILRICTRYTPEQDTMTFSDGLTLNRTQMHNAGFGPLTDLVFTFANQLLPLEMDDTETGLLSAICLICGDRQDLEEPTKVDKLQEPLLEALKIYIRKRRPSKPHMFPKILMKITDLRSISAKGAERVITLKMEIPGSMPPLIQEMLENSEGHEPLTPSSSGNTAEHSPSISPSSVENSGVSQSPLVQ
# Procedure: as §1, §2, §3, §4, §5
# RARα = molecular target: T3, RARα (Homo sapiens, UniProt P10276); assay: RARα receptor binding assay, competition with [3H] retinoic acid; details: Baculovirus-expressed receptor; Kd from IC50 by Cheng-Prussof; mean and standard deviation; read-out: receptor affinity (KD), RARα
# T3 construct: made in house
# T3 sequence (P10276 1-462): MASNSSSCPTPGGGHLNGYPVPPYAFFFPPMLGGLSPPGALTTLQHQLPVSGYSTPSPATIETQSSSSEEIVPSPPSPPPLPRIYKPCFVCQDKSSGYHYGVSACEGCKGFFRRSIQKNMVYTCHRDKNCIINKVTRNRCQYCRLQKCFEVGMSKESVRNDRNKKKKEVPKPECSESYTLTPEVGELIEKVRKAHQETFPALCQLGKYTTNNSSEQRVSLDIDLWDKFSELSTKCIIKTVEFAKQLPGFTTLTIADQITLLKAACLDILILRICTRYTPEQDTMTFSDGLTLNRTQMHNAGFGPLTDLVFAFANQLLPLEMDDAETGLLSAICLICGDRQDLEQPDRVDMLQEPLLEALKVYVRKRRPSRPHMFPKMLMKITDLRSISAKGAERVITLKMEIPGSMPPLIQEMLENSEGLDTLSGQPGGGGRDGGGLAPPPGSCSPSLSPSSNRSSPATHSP
# Procedure: All binding assays were performed in a similar fashion.
# All receptor binding assays were performed in the same manner. […] Incubations were carried out at 4° C. until equilibrium was achieved. Non-specific binding was defined as that binding remaining in the presence of 1000 nM of the appropriate unlabeled retinoic acid isomer. […] The mixture was vortexed and incubated for 10 minutes at 4° C., centrifuged and the supernatant removed. The hydroxyapitite was washed three more times with the appropriate wash buffer. The receptor-ligand complex was adsorbed by the hydroxyapitite. The amount of receptor-ligand complex was determined by liquid scintillation counting of hydroxyapitite pellet.
# as §4
# The results of ligand binding assay are expressed in Kd numbers.
maximal vitreous concentration of tazarotenic acid obtainable after direct intraocular implantation ([3]; intraocular tazarotene),"period for which concentrations were maintained at low effective levels ([3]; subconjunctival dosing of tazarotene, ocular tissues)",Kd (RARγ),Kd (RARβ),Kd (RARα),SMILES,"effect on vision, retinitis pigmentosa [1]","effect on traction retinal detachment, proliferative vitreal retinopathy [2]"
–,–,–,–,–,CCCCCCCCCCCCCCCC(=O)OC/C=C(C)/C=C/C=C(C)/C=C/C1=C(C)CCCC1(C)C [all-trans retinyl palmitate],Maintenance of vision or a slowing of the progression of vision loss is observed,–
–,–,–,–,–,"CCOC(=O)c1ccc(C#Cc2ccc3c(c2)C(C)(C)CCS3)nc1 [tazarotene, ethyl 6-[(4,4-dimethylthiochroman-6-yl)ethynyl]nicotinate]",Maintenance of vision or a slowing of the progression of vision loss is observed,Traction retinal detachment is prevented or the rate of traction retinal detachment is reduced
10 ng/mL,336 h,353 ± 37 nM,164 ± 48 nM,901 ± 123 nM,"CC1(C)CCSc2ccc(C#Cc3ccc(C(=O)O)cn3)cc21 [tazarotenic acid, 4,4-dimethyl-6-[2′-(5″-carboxy-2″-pyridyl)-ethynyl]-thiochroman]",–,–
